From ChEMBL document CHEMBL1201862, “PubChem BioAssay data set” (2004)
The source made the active and inactive calls.

Columns and labels:
[1] = target: T1, Calpain-2 catalytic subunit (Sus scrofa, UniProt P43367); assay: m-calpain protease blockers, concentration series – biochemical, fluorogenic peptide substrate, dose response (AID 1420); type: functional
T1 sequence (P43367 whole entry): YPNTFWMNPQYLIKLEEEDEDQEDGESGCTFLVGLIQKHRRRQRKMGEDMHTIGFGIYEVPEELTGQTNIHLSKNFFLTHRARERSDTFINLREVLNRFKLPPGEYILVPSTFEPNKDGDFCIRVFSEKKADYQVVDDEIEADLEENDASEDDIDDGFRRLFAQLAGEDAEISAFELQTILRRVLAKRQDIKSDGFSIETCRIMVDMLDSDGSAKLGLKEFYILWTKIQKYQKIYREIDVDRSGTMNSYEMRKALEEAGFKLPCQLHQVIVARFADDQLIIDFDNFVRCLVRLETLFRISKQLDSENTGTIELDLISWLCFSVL

BJ [2] = assay: BJ-TERT fibroblast viability loss – cell-based, RAS-independent, luminescence, dose response (AID 1933); type: functional; conditions: Homo sapiens
BJ [3] = assay: cells; type: functional, cell-based; conditions: Homo sapiens
BJ [4] = assay: BJ-TERT-LT-ST fibroblast viability loss – cell-based, RAS-independent, luminescence, dose response (AID 1935); type: functional; conditions: Homo sapiens;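 also: BJ fibroblasts immortalized with TERT plus LT and ST oncogenes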
[5] = DRD fibroblast viability loss – cell-based, non-viral oncogenic, luminescence, dose response (AID 1934); type: functional; conditions: Homo sapiens
[6] = Trypanosoma cruzi growth suppression in host cells – NIH3T3 host cells, beta-gal luminescence, confirmation (AID 2044); type: functional, cell-based;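 also: intracellular parasites grown in NIH/3T3 mouse fibroblasts as host cells; luminescent beta-galactosidase reporter signal from transgenic T. cruzi replicating inside host cells; inhibitors lower the luminescence signal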
[7] = NIH3T3 cell viability loss – ATP luminescence, mouse fibroblasts, counter-screen, dose response (AID 2010); type: functional, cell-based;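 also: cells exposed to compound for about 90 hours before reading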
Protein RecA = target: T2, Protein RecA (Mycobacterium tuberculosis, UniProt P9WHJ3); assay: Fluorescence Cell-Free Homogeneous Dose Retest to Identify Inhibitors of RecA-Intein Splicing Activity. [Related pubchem assays (depositor defined):AID2097, AID2223, AID489010, AID492950]; type: functional
T2 sequence (P9WHJ3 whole entry): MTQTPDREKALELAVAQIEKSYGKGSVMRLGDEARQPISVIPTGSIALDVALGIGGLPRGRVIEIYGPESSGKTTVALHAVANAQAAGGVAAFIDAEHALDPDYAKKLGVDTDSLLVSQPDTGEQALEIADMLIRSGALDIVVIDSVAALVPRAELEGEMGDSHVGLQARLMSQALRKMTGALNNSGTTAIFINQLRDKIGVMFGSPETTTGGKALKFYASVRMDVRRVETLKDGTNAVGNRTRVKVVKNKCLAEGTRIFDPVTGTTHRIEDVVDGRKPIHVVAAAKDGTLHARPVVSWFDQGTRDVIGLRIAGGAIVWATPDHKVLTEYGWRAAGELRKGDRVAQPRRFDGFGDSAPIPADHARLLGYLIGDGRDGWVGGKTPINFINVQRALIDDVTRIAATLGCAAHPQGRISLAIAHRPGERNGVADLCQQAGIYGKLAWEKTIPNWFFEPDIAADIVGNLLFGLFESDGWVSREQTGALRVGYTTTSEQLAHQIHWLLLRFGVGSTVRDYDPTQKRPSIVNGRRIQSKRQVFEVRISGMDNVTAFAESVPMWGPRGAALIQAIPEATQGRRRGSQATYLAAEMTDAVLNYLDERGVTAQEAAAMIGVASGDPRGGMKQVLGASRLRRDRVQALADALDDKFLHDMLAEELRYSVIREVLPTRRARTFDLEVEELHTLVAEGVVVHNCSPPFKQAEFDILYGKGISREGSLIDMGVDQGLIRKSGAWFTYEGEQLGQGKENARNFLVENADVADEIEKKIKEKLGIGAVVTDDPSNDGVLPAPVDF

[8] = target: T3, Replicative DNA helicase DnaB (Mycobacterium tuberculosis, UniProt P9WMR3); assay: DnaB intein splicing inhibitors, dose response, biochemical, cell-free fluorescence (AID 449749); type: functional
T3 sequence (P9WMR3 whole entry): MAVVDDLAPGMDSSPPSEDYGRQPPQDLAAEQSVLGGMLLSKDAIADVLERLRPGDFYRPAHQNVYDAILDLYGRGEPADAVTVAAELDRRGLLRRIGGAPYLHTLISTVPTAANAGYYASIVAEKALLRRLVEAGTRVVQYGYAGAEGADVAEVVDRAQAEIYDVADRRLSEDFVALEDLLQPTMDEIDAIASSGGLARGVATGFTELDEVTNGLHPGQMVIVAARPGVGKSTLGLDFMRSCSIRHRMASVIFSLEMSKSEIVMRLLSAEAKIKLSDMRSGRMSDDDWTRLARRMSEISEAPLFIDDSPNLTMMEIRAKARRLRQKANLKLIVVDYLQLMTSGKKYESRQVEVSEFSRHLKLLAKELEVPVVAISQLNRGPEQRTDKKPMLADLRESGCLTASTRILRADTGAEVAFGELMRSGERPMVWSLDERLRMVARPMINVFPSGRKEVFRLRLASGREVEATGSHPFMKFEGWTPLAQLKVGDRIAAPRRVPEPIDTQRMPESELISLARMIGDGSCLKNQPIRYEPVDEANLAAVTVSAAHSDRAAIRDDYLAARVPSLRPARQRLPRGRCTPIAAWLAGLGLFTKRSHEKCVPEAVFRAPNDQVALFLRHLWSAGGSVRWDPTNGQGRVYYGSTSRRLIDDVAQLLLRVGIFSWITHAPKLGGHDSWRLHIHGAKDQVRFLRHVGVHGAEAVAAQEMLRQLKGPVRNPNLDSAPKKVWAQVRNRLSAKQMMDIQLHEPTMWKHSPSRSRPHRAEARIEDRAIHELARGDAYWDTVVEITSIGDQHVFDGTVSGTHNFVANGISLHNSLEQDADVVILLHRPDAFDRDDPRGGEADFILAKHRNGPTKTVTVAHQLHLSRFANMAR

[9] = target: Induced myeloid leukemia cell differentiation protein Mcl-1 (Homo sapiens, UniProt Q07820); type: functional
Sequence of Induced myeloid leukemia cell differentiation protein Mcl-1 (Q07820 whole entry, the tested form may be a part): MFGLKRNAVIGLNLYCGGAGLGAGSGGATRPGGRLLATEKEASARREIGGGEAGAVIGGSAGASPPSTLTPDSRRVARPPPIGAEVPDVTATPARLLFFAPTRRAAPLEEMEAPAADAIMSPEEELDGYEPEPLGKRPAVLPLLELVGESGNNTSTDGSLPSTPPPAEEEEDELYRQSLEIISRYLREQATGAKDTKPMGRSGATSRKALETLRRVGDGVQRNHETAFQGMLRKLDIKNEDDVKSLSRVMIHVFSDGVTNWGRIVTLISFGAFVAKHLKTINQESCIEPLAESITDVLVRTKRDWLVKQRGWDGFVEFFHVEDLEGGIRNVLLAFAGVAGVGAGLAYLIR

[10] = blockers of HIV-1 envelope-mediated cell-cell fusion – cherry-pick, dose response (AID 652057); type: functional, cell-based
[11] = HIV-1 AD8 envelope cell-cell fusion blockers – cherry-pick, dose response (AID 652062); type: functional, cell-based;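 also: luciferase signal from cell-cell fusion driven by HIV-1 clade B AD8 Env; potency is for inhibitors of fusion seen as a drop in luminescence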
[12] = target: T4, Heat shock factor protein 1 (Mus musculus, UniProt P38532); assay: decrease of HSF1-responsive luciferase luminescence – cell-based, NIH3T3, dose retest, confirmation (AID 2382); type: functional;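 also: NIH3T3 fibroblasts with HSF1-driven luciferase reporter stressed by proteasome inhibitor MG132; luminescence from HSF1-driven luciferase expression after 8 hours of MG132 stress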
T4 sequence (P38532 whole entry): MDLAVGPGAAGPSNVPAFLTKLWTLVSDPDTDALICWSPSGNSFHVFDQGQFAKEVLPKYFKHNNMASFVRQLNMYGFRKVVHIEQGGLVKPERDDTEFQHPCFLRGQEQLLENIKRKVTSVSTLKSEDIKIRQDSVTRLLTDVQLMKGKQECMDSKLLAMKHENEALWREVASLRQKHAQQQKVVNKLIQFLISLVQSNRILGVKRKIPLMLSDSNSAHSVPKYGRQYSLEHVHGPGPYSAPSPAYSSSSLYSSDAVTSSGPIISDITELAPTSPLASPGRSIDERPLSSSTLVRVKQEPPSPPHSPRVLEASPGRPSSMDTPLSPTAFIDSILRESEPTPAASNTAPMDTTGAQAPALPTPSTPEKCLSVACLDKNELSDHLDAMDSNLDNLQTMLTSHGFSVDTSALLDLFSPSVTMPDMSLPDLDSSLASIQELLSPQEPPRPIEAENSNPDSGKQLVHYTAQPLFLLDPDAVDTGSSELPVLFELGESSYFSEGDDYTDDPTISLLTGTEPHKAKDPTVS

[13] = NIH-3T3 fibroblast cytotoxicity, dose response, cytotoxicity control, cell-based, fluorescence, Alamar Blue, secondary assay (AID 2327); type: functional;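 also: NIH-3T3 mouse fibroblasts cultured with fluconazole at 8 µg/mL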
[14] = fluconazole-exposed Candida albicans growth modulators – fluorescence, retest, confirmation (AID 2467); type: functional, cell-based
[15] = target: T5, Carboxy-terminal domain RNA polymerase II polypeptide A small phosphatase 1 (Homo sapiens, UniProt Q9GZU7); assay: CTDSP1 inhibitors, concentration-response, biochemical, absorbance readout, ultra-high-throughput screen actives (AID 540297); type: functional
T5 sequence (Q9GZU7 whole entry): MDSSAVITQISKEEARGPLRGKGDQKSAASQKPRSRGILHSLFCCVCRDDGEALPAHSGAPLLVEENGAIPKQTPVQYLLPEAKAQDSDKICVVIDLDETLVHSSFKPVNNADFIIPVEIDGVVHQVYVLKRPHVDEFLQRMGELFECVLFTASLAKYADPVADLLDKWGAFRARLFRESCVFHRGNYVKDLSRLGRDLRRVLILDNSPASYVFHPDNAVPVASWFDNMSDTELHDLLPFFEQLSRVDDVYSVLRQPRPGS

Cytochrome P450 2C19 = Cytochrome P450 2C19 (Homo sapiens, UniProt P33261); assay: Cytochrome panel assay with activity outcomes. Panel member name: p450-cyp2c19 Compounds with AC50 equal or less than 10 uM are considered active; type: functional; conditions: read-out: AC50
Sequence of Cytochrome P450 2C19 (P33261 whole entry): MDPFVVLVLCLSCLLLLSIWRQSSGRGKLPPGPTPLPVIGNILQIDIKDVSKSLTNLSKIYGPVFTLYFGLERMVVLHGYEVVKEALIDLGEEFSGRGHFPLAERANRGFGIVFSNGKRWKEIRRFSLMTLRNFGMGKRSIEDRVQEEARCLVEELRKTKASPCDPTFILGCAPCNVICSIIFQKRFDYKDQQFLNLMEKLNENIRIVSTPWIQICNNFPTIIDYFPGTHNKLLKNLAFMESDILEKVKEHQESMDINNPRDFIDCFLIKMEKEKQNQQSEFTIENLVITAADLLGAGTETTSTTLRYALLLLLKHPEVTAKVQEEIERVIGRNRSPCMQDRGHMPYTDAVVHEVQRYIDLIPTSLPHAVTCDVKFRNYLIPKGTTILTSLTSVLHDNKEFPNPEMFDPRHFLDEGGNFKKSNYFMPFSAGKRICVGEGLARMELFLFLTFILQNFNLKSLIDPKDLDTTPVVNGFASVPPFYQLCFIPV

O=C(Nc1ccc(Cl)c(Cl)c1)N1N=CCC1c1ccccc1 (centres undefined)
IC50 [1]: 8.45 µM (not active)

O=C(c1ccc2c(c1)OCO2)N1CCN(c2ccc(C(F)(F)F)cn2)CC1
IC50 [1]: < 0.4 µM (not active)

N#C/C(=C\c1cccnc1)c1nc2ccccc2[nH]1
EC50 (BJ [2]): 23.5 µM (active)
EC50 (BJ [3]): > 150 µM (not active)
EC50 (BJ [4]): > 75 µM (not active)
EC50 [5]: 38 µM (active)

CC1=Nc2ccccc2N=C(NC(=O)CN2CCN(c3ccccc3)CC2)C1c1ccccc1 (centres undefined)
EC50 [6]: 2.06 µM (active)
IC50 [1]: > 50 µM (not active)
EC50 [7]: > 30 µM (not active)

COCCNC(=O)NC(=O)CN1CCCc2ccccc21
IC50 [1]: < 0.4 µM (not active)

COc1ccccc1-c1cnnc(S)n1
EC50 (Protein RecA): 111 µM (active)

Cc1onc(-c2c(Cl)cccc2Cl)c1C(=O)n1nnc2ccccc21
AC50 [8]: 16.4 µM (active)
EC50 (Protein RecA): 26.5 µM (active)

O=C1c2cccc3cc([N+](=O)[O-])cc(c23)C(=O)N1/N=C/c1ccc(O)cc1O
IC50 [9]: 1.44 µM (active)

O=C(C[C@H]1CC[C@H]2[C@@H](COC[C@H](O)CN2C(=O)Nc2ccc(Cl)c(Cl)c2)O1)NCc1ccncc1
AC50 [10]: 31.5 µM (active)
AC50 [11]: 26.5 µM (active)

O=C(CCl)Nc1ccccc1C(=O)c1ccccc1
EC50 (BJ [2]): > 150 µM (not active)
EC50 [12]: > 195 µM (not active)
EC50 (BJ [3]): > 150 µM (not active)
EC50 (BJ [4]): > 150 µM (inconclusive)
EC50 [5]: 35.3 µM (active)

COc1cc(/C=N/NC(=O)c2ccc([N+](=O)[O-])cc2Cl)cc(Br)c1O
IC50 [9]: 15.2 µM (not active)

O=C(Nc1ccc(NC(=O)c2cccs2)cc1)c1ccc(Br)o1
EC50 [13]: > 160 µM (inconclusive)
EC50 [14]: 2.22 µM (active)
IC50 [15]: 7.45 µM (active)

O=C(NCCNCc1ccccc1)c1ccco1
IC50 [15]: 9.15 µM (active)

O=C(COC(=O)/C=C/c1ccco1)Nc1ccc(F)cc1Cl
IC50 [15]: 36.6 µM (active)

C[n+]1cn(CC(O)COCc2ccccc2)c2ccccc21 (centres undefined)
AC50 (Cytochrome P450 2C19): 15.8 µM (inconclusive)
IC50 [15]: 10.8 µM (active)

Cc1nn(Cc2ccccc2)c2c1C(c1ccc(Cl)cc1)C(C#N)=C(N)O2 (centres undefined)
AC50 [8]: 6.41 µM (active)
EC50 (Protein RecA): 3.58 µM (active)

O=C(Cc1ccccc1)c1c[nH]c(C(=O)C(Cl)(Cl)Cl)c1
AC50 [8]: 4.92 µM (active)
EC50 (Protein RecA): 4.99 µM (active)

CN(C)CCCNC(=O)[C@H]1[C@H](CO)[C@H]2Cn3c(ccc(C4=CCCC4)c3=O)[C@H]2N1CCC(F)(F)F
AC50 [11]: 1.09 µM (active)

Cc1ccc(NC2=NC(=O)/C(=C/C=C/c3ccco3)S2)cc1
IC50 [9]: 8.32 µM (active)

O=C(CCS(=O)(=O)c1ccc(Br)cc1)NCCC1=CCCCC1
IC50 [15]: 9.5 µM (active)

Cc1cc(=O)oc2cc(NC(=O)c3cc(F)ccc3F)ccc12
IC50 [15]: 6.83 µM (active)

COc1cccc2c(C)c(C(=O)O)[nH]c12
EC50 [12]: 5.27 µM (active)
IC50 [9]: 2.81 µM (active)

CCC(C(=O)OCC(=O)Nc1ccccc1-c1ccccc1)c1ccccc1 (centres undefined)
IC50 [1]: 9.96 µM (not active)

CN1CCN(c2ccc([N+](=O)[O-])cc2/C=N/NC(=O)c2cccc([N+](=O)[O-])c2)CC1
IC50 [9]: 3.57 µM (active)

O=C(CNc1ccc2ccccc2c1)N/N=C/C=C/c1cccc([N+](=O)[O-])c1
IC50 [9]: 6.79 µM (active)

COc1ccc(N2CCN(C(=O)CCC(=O)c3cc(C)sc3C)CC2)cc1
IC50 [1]: 30.3 µM (not active)

CS(=O)(=O)N(CC(=O)NCCc1ccccc1)c1cccc([N+](=O)[O-])c1
IC50 [1]: 5.74 µM (not active)

COC(=O)CC1(c2cccc3ccccc23)C(=O)c2ccccc2C1=O
AC50 [8]: 5.91 µM (active)
EC50 (Protein RecA): 4.46 µM (active)

COc1cc2c(C#CCO)c(-c3ccc(C#N)cc3)oc(=O)c2cc1OC
IC50 [15]: 8.45 µM (active)

CC1=NN(c2ccccc2)C(=O)/C1=C\c1cc(C)n(-c2cccnc2)c1C
AC50 [8]: 44.8 µM (active)
EC50 (Protein RecA): 88.8 µM (active)
